What was measured:
Assay type in all cases: in vivo
Botrytis cinerea = experiment: Botrytis test (bean)/protective; conditions: 500 g/ha, protective, 2 days after inoculation
Procedure: To produce a suitable preparation of active compound, 1 part by weight of active compound is mixed with the stated amounts of solvent and emulsifier, and the concentrate is diluted with water to the desired concentration. To test for protective activity, young plants are sprayed with the preparation of active compound at the stated application rate. After the spray coating has dried on, 2 small pieces of agar colonized by Botrytis cinerea are placed onto each leaf. The inoculated plants are placed in a dark chamber at about 20° C. and 100% relative atmospheric humidity. 2 days after the inoculation, the size of the infested areas of the leaves is evaluated. 0% means an efficacy which corresponds to that of the control, whereas an efficacy of 100% means that no infection is observed.

[1] = system: peach aphid (Myzus persicae); experiment: Myzus test (cabbage leaf dip); conditions: 500 ppm
Procedure: To produce a suitable preparation of active compound, 1 part by weight of active compound is mixed with the stated amounts of solvent and emulsifier, and the concentrate is diluted with emulsifier-containing water to the desired concentration. Cabbage leaves (Brassica oleracea) which are heavily infested by the peach aphid (Myzus persicae) are treated by being dipped into the preparation of active compound of the desired concentration. After the desired period of time, the kill in % is determined. 100% means that all aphids have been killed; 0% means that none of the aphids have been killed.

[2] = system: greenhouse red spider mite (Tetranychus urticae); experiment: Tetranychus test (OP-resistant/dip treatment); conditions: 100 ppm; bean plants dipped
Procedure: To produce a suitable preparation of active compound, 1 part by weight of active compound is mixed with the stated amounts of solvent and emulsifier, and the concentrate is diluted with emulsifier-containing water to the desired concentration. Bean plants (Phaseolus vulgaris) which are heavily infested by all stages of the greenhouse red spider mite (Tetranychus urticae) are dipped into a preparation of active compound of the desired concentration. After the desired period of time, the effect in % is determined. 100% means that all spider mites have been killed; 0% means that none of the spider mites have been killed.

Setaria [3] = experiment: Pre-emergence test; conditions: after three weeks
Procedure: (§1) To produce a suitable preparation of active compound, 1 part by weight of active compound is mixed with the stated amount of solvent, the stated amount of emulsifier is added and the concentrate is diluted with water to the desired concentration. Seeds of the test plants are sown in normal soil. After about 24 hours, the soil is sprayed with the preparation of active compound such that the particular amounts of active compound desired are applied per unit area. The concentration of the spray liquor is chosen such that the particular amounts of active compound desired are applied in 1000 l of water/ha. After three weeks, the degree of damage to the plants is rated in % damage in comparison to the development of the untreated control. The figures denote: • 0%=no effect (like untreated control) • 100%=total destruction

Sinapis [4] = experiment: Pre-emergence test; conditions: after three weeks
Procedure: as §1

Alopecurus [5] = experiment: Pre-emergence test; conditions: after three weeks
Procedure: as §1

Avena fatua [6] = experiment: Pre-emergence test; conditions: after three weeks
Procedure: as §1

Maize = experiment: Pre-emergence test; conditions: 125 g of ai/ha, after three weeks
Procedure: as §1

Lolium = experiment: Pre-emergence test; conditions: 125 g of ai/ha, after three weeks
Procedure: as §1

Eriochloa = experiment: Pre-emergence test; conditions: 125 g of ai/ha, after three weeks
Procedure: as §1

Digitaria = experiment: Pre-emergence test; conditions: 125 g of ai/ha, after three weeks
Procedure: as §1

Ipomoea = experiment: Pre-emergence test; conditions: 125 g of ai/ha, after three weeks
Procedure: as §1

Setaria [7] = experiment: Post-emergence test; conditions: 250 g of ai/ha, after three weeks
Procedure: as §1, with “Test plants” for “Seeds”, “a height of 5-15 cm” for “the test plants”, “are” for “are sown in normal soil. After about 24 hours, the soil is”

Abutilon = experiment: Post-emergence test; conditions: 250 g of ai/ha, after three weeks
Procedure: as §1, with “Test plants” for “Seeds”, “a height of 5-15 cm” for “the test plants”, “are” for “are sown in normal soil. After about 24 hours, the soil is”

Sinapis [8] = experiment: Post-emergence test; conditions: 250 g of ai/ha, after three weeks
Procedure: as §1, with “Test plants” for “Seeds”, “a height of 5-15 cm” for “the test plants”, “are” for “are sown in normal soil. After about 24 hours, the soil is”

Sugar beet [9] = experiment: Post-emergence test; conditions: 250 g of ai/ha, after three weeks
Procedure: as §1, with “Test plants” for “Seeds”, “a height of 5-15 cm” for “the test plants”, “are” for “are sown in normal soil. After about 24 hours, the soil is”

Amaranthus [10] = experiment: Post-emergence test; conditions: 250 g of ai/ha, after three weeks
Procedure: as §1, with “Test plants” for “Seeds”, “a height of 5-15 cm” for “the test plants”, “are” for “are sown in normal soil. After about 24 hours, the soil is”

Avena fatua [11] = experiment: Post-emergence test; conditions: 250 g of ai/ha, after three weeks
Procedure: as §1, with “Test plants” for “Seeds”, “a height of 5-15 cm” for “the test plants”, “are” for “are sown in normal soil. After about 24 hours, the soil is”

[12] = system: larvae of the mustard beetle (Phaedon cochleariae); experiment: Phaedon larvae test (cabbage leaf dip); conditions: 1000 ppm
Procedure: To produce a suitable preparation of active compound, 1 part by weight of active compound is mixed with the stated amounts of solvent and emulsifier, and the concentrate is diluted with emulsifier-containing water to the desired concentration. Cabbage leaves (Brassica oleracea) are treated by being dipped into the preparation of active compound of the desired concentration and are populated with larvae of the mustard beetle (Phaedon cochleariae) while the leaves are still moist. After the desired period of time, the kill in % is determined. 100% means that all beetle larvae have been killed; 0% means that none of the beetle larvae have been killed.

Echinochloa = experiment: Pre-emergence test; conditions: 250 g of ai/ha, after three weeks
Procedure: as §1

Sugar beet [13] = experiment: Pre-emergence test; conditions: 250 g of ai/ha, after three weeks
Procedure: as §1

Amaranthus [14] = experiment: Pre-emergence test; conditions: 250 g of ai/ha, after three weeks
Procedure: as §1

Alopecurus [15] = experiment: Post-emergence test; conditions: 250 g of ai/ha, after three weeks
Procedure: as §1, with “Test plants” for “Seeds”, “a height of 5-15 cm” for “the test plants”, “are” for “are sown in normal soil. After about 24 hours, the soil is”

Galium = experiment: Post-emergence test; conditions: 250 g of ai/ha, after three weeks
Procedure: as §1, with “Test plants” for “Seeds”, “a height of 5-15 cm” for “the test plants”, “are” for “are sown in normal soil. After about 24 hours, the soil is”

[16] = system: larva (L3) of the army worm (Spodoptera frugiperda); experiment: Spodoptera frugiperda test/synthetic feed; conditions: 1000 ppm; synthetic feed
Procedure: To produce a suitable preparation of active compound, 1 part by weight of active compound is mixed with the stated amounts of solvent and emulsifier, and the concentrate is diluted with emulsifier-containing water to the desired concentration. A stated amount of the preparation of active compound of the desired concentration is pipetted onto a standardized amount of synthetic feed. In 6 replications, in each case one larva (L3) of the army worm (Spodoptera frugiperda) is placed onto the feed. After the desired period of time, the kill in % is determined. 100% means that all animals have been killed; 0% means that none of the animals have been killed.

Cyperus = experiment: Post-emergence test; conditions: 250 g of ai/ha, after three weeks
Procedure: as §1, with “Test plants” for “Seeds”, “a height of 5-15 cm” for “the test plants”, “are” for “are sown in normal soil. After about 24 hours, the soil is”

Compound: Cc1ccc(-c2ccc(Cl)cc2)cc1C1=C(O)C2(CCC(OCc3ccc(Cl)cc3)CC2)NC1=O (single isomer, unassigned) [Ex. I-1-a-30]
- % efficacy (Botrytis cinerea): 100%
- Kill rate in % after 6d [1]: 100%
- Kill rate in % after 7d [2]: 99%

Compound: CCOC(=O)OC1=C(c2c(C)cc(C)cc2C)C(=O)NC12CCC(OCc1ccccc1)CC2 (single isomer, unassigned) [Ex. I-1-c-3]
- % damage (Setaria [3]; 125 g of ai/ha): 100%
- % damage (Sinapis [4]; 125 g of ai/ha): 90%
- % damage (Alopecurus [5]; 125 g of ai/ha): 90%
- % damage (Avena fatua [6]; 125 g of ai/ha): 70%

Compound: Cc1cc(C)c(C2=C(O)C3(CCC(OCc4cccc(Cl)c4)CC3)NC2=O)c(C)c1 (single isomer, unassigned) [Ex. I-1-a-23]
- % damage (Setaria [3]; 125 g of ai/ha): 95%
- % damage (Maize): 0%
- % damage (Lolium): 80%
- % damage (Eriochloa): 99%
- % damage (Digitaria): 100%
- % damage (Ipomoea): 80%
- % damage (Setaria [7]): 95%
- % damage (Abutilon): 80%
- % damage (Sinapis [8]): 90%
- % damage (Sugar beet [9]): 0%
- % damage (Amaranthus [10]): 90%
- % damage (Avena fatua [11]): 80%

Compound: Cc1cc(C)c(C2=C(O)C3(CCC(OCC4CCCO4)CC3)NC2=O)c(C)c1 (single isomer, unassigned) [Ex. I-1-a-7]
- Kill rate in % after 7d [12]: 100%
- % damage (Setaria [3]; 250 g of ai/ha): 100%
- % damage (Sinapis [4]; 250 g of ai/ha): 90%
- % damage (Echinochloa): 99%
- % damage (Sugar beet [13]): 0%
- % damage (Alopecurus [5]; 250 g of ai/ha): 80%
- % damage (Amaranthus [14]): 95%
- % damage (Avena fatua [6]; 250 g of ai/ha): 95%

Compound: Cc1cc(C)c(C2=C(O)C3(CCC(OCc4ccc(Cl)cc4)CC3)NC2=O)c(C)c1 (single isomer, unassigned) [Ex. I-1-a-27]
- % damage (Abutilon): 80%
- % damage (Sinapis [8]): 80%
- % damage (Alopecurus [15]): 90%
- % damage (Galium): 70%
- % damage (Amaranthus [10]): 90%

Compound: Cc1ccc(C)c(C2=C(OC(=O)C(C)C)C3(CCC(OCc4ccccc4)CC3)NC2=O)c1 (centres unmarked) [Ex. I-1-b-1]
- Kill rate in % after 7d [16]: 100%

Compound: Cc1cc(C)c(C2=C(OC(=O)C(C)C)C3(CCC(OCc4ccccc4)CC3)NC2=O)c(C)c1 (single isomer, unassigned) [Ex. I-1-b-2]
- % damage (Setaria [7]): 95%
- % damage (Cyperus): 80%
- % damage (Sinapis [8]): 70%
- % damage (Sugar beet [9]): 0%
- % damage (Alopecurus [15]): 80%
